{
  "source": "patent US20100293626A1",
  "about": "“METHODS FOR IMPROVEMENT OF BIRTH RATES IN CANIDAE ON SOMATIC CELL NUCLEAR TRANSFER” (SEOUL NATIONAL UNIVERSITY INDUSTRY FOUNDATION, priority 2007, published 2010)",
  "key": {"[1]": {"tested_on": "reconstructed oocytes (canine cloned embryos)", "test": "Nuclear remodeling of reconstructed oocytes after somatic cell nuclear transfer with roscovitine-treated donor cells", "format": "cell-based, dog", "protocol": "Before performing somatic cell nuclear transfer, the cells were thawed and cultured for 24 hours in a medium supplemented with 15 μM roscovitine (i.e., DMEM+10% FBS+15 μM roscovitine). Then, the cells were treated with trypsin for about 2 minutes during somatic cell nuclear transfer and collected from the monolayer.\nThe nuclear donor cells prepared in Example 3 were microinjected into the enucleated oocytes prepared in Example 2. The nuclear donor cells were microinjected into a perivitelline space of the enucleated oocytes in the following manner. The enucleated oocytes were treated with […] phytohemagglutinin in the medium of Table 1, and the slit of the enucleated oocytes was held with a holding pipette. Then, a transfer pipette was inserted into the slit, and the single cells isolated from fibroblasts in Example 3 were injected between the cytoplasm and zona pellucida of the enucleated oocytes by the transfer pipette.\nThen, the nuclear donor cell-oocyte couplets were placed in a fusion medium (containing 0.26 M mannitol, 0.1 mM MgSO4, 0.5 mM HEPES and 0.05% BSA) and interposed between two parallel electrodes attached to a micromanipulator (Nikon-Narishige, Japan). Then, the fusion of the couplets was induced by electrical stimulation applied twice at a voltage of 4 kV/cm for 15 μs using an electro-cell fusion apparatus (NEPA GENE Co., Chiba, Japan).\nAfter 1 hour of electrical stimulation, the fusion of the nuclear donor cells with the oocyte cytoplasm was observed under a stereomicroscope. The fused embryos were selected and cultured for 1.5-4 hours in TCM-199 (Table 2) supplemented with 10% (v/v) FBS.\nThe nuclear transfer embryos obtained in Example 4 were cultured in mSOF containing 10 μM ionophore (Sigma) at 39° C. for 4 minutes, thus inducing the activation of the nuclear transfer embryos. Then, the nuclear transfer embryos were washed and further cultured in mSOF (Table 3) supplemented with 1.9 mM 6-dimethylaminopurin for 4 hours.\nAfter performing canine somatic cell nuclear transfer into the enucleated oocytes using the microinjection method, the difference in the formation and change of nuclei between a control group not treated with roscovitine and a group treated with roscovitine for 24 hours, was examined."}, "surrogate mothers": {"tested_on": "surrogate mothers", "test": "Pregnancy rate after transfer of nuclear transfer embryos into surrogate mothers", "format": "in vivo, dog", "protocol": "The nuclear transfer embryos from Example 5 were surgically transferred into the oviduct of estrus synchronized surrogate mothers. The transfer was carried out within 4 hours after the activation of the nuclear transfer embryos. […] For the transfer, the surrogate mothers were anesthetized by vascular injection with 0.1 mg/kg acepromazine and 6 mg/kg propofol, and maintained at the anesthetized state using 2% isoflurane. Operation area of the anesthetized female dogs was aseptically operated and incised on the center of the abdomen according to general laparotomy so as to expose the oviduct. The abdominal cavity was stimulated by hand to draw the ovary, the oviduct and the uterus to the incision. The mesovarium of the drawn ovary was carefully handled to recognize the opening of the oviduct, and a 3.5 F Tom cat catheter (Sherwood, St. Louis, Mo.) equipped with a 1.0 ml tuberculin syringe (Latex free, Becton Dickinson & CO. Franklin lakes, N.J. 07417) was inserted into the oviduct to secure a sufficient space in the front of the catheter. Then, the nuclear transfer embryos were injected into the oviduct through the catheter. Whether the nuclear transfer embryos were successfully injected was observed under a microscope. The abdominal suture was performed with an absorbable suture material, and then, skin suture was performed. To prevent post-surgery infection, a broad range of antibiotic was injected for 3 days.\nAt 23 days after transferring the nuclear transfer embryos into the surrogate mothers, pregnancies were detected using a SONOACE 9900 (Medison Co. LTD, Seoul, Korea) ultrasound scanner with an attached 7.0 MHZ linear probe. Pregnancy was monitored by ultrasound every 2 weeks after initial confirmation. As a result, it was confirmed that the dogs had become pregnant, and the cloned dogs were produced by inducing natural delivery or performing Cesarean section. […]"}, "[2]": {"settings": "1 hpf, donor cells treated with roscovitine for 24 hours"}, "[3]": {"settings": "4 hpa, donor cells treated with roscovitine for 24 hours"}},
  "data": [
    {"smiles": "CC[C@@H](CO)Nc1nc(NCc2ccccc2)c2ncn(C(C)C)c2n1", "note": "[roscovitine]", "values": [
      {"measurement": "No. of reconstructed oocytes with IN (intact nucleus)", "setting": "[1]; 1 hpf (hour post fusion), donor cells treated with roscovitine for 24 hours", "value": 11},
      {"measurement": "IN (%) for reconstructed oocytes", "setting": "[1]; [2]", "value": "(32.3 ± 7.0) %"},
      {"measurement": "No. of reconstructed oocytes with NE (nuclear enlargement)", "setting": "[1]; [2]", "value": 0},
      {"measurement": "No. of reconstructed oocytes with NS (nuclear swelling)", "setting": "[1]; [2]", "value": 0},
      {"measurement": "No. of reconstructed oocytes with PCC (premature chromosome condensation)", "setting": "[1]; [2]", "value": 23},
      {"measurement": "PCC (%) for reconstructed oocytes", "setting": "[1]; [2]", "value": "(67.6 ± 7.0) %"},
      {"measurement": "No. of reconstructed oocytes with IN (intact nucleus)", "setting": "[1]; 4 hpa (hour post activation), donor cells treated with roscovitine for 24 hours", "value": 0},
      {"measurement": "NE (%) for reconstructed oocytes", "setting": "[1]; [3]", "value": "(23.6 ± 7.5) %"},
      {"measurement": "NS (%) for reconstructed oocytes", "setting": "[1]; [3]", "value": "(73.6 ± 7.5) %"},
      {"measurement": "No. of reconstructed oocytes with NE (nuclear enlargement)", "setting": "[1]; [3]", "value": 9},
      {"measurement": "No. of reconstructed oocytes with NS (nuclear swelling)", "setting": "[1]; [3]", "value": 28},
      {"measurement": "No. of reconstructed oocytes with PCC (premature chromosome condensation)", "setting": "[1]; [3]", "value": 1},
      {"measurement": "PCC (%) for reconstructed oocytes", "setting": "[1]; [3]", "value": "(2.6 ± 3.3) %"},
      {"measurement": "Nuclear swelling (NS) compared with control group, in words", "setting": "[1]; 4 hours after activation of the fused embryos", "value": "occurred more in the treated group than in the control group"},
      {"measurement": "Rate of premature chromosome condensation (PCC) compared with control group, in words", "setting": "[1]; after electrical fusion (1 hour elsewhere in the source)", "value": "at a rate significantly higher than that in the control group"},
      {"measurement": "No. of pregnant mothers", "setting": "surrogate mothers; 556 embryos transferred into 29 surrogate mothers, donor cells treated with roscovitine", "value": 11},
      {"measurement": "Pregnancy rate (based on transfer embryos)", "setting": "surrogate mothers; 556 transfer embryos", "value": 3.95, "unit": "%"},
      {"measurement": "Pregnancy rate compared with control, in words", "setting": "surrogate mothers; somatic cell nuclear transfer after treatment with roscovitine", "value": "very significantly increased"}
    ]}
  ]
}
